According to PubChem BioAssay AID1845202 (Molecular Pharmacology Branch, DTP, NCI, 2023):

Tested on: DMS 114 tumor spheroids, viability % test/control
Experiment: Anticancer human tumor DMS 114 cell line growth inhibition;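 note: spheroids exposed to compounds for 7 days before read-out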;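 for viability, T/C: luminescence used as a proxy for viable cells; 100% = DMSO vehicle control viability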
Settings: spheroids with HUVEC and MSC; for viability, T/C: stronger effect = lower value
Source text: Multicellular complex tumor spheroid response to DNA repair inhibitors in combination with DNA-damaging drugs
This study explores the anticancer activities of DNA-damaging drugs and inhibitors of DNA damage repair, both as single agents and in combinations. Complex tumor spheroids comprised of malignant cells, endothelial cells and mesenchymal stem cells served as an in vitro model for human solid tumors. This model system incorporates physiologically relevant features and patient-derived or established malignant cell lines with clinically relevant genetic alterations from many tumor types. Twenty-six patient-derived or established malignant cell lines were evaluated representing sarcoma, melanoma, small cell lung cancer (SCLC), non-small cell lung cancer (NSCLC), as well as bladder, ovarian and pancreatic cancers. The concentration ranges selected for each drug and investigational agent were based upon clinically achievable concentrations if the clinical Cmax of the agent was known.
Compounds. The drugs and compounds olaparib (NSC753686), talazoparib (NSC767125), berzosertib (NSC777718), elimusertib (NSC800525), nedisertib (NSC802822), VX-984 (NSC792969), AZD-1390 (NSC803789), temozolomide (NSC362856), topotecan (NSC609699), trabectedin (NSC813783), staurosporine (NSC755774), and gemcitabine (NSC613327) were obtained from the National Cancer Institute (NCI) Developmental Therapeutics Program Chemical Repository. The FDA-approved anticancer drug set is available from the Developmental Therapeutics Program at https://dtp.cancer.gov/organization/dscb/obtaining/available_plates.htm. […] The stock solutions were prepared in dimethyl sulfoxide (DMSO, Sigma-Aldrich, St. Louis, MO, cat. D2650) at 400-fold the tested concentration and stored at -70 degrees C. Prior to their use, the stock solutions were diluted in fresh medium and the final DMSO concentration in the assay was 0.25% (v/v). All drugs and investigational agents were tested over a range starting from a high concentration at or near the clinical Cmax and decreasing in half-log increments. If the clinical Cmax for an agent had not been determined, the highest concentration tested was 10 microM.
Cell Lines. The patient-derived cancer cell (PDC) lines: 156681-154-R-J1-PDC, 283228-195-R-J1-PDC, 287954-098-R-J1-PDC, 292921-168-R-J2-PDC, 349418-098-R-PDC, 425362-245-T-J1-PDC, 556581-035-R-J1-PDC, and BL0293-F563-PDC were received from the NCI Patient-Derived Models Repository (PDMR, https://pdmr.cancer.gov). The established cell lines HS-SY-2 (RRID:CVCL_8719), MPNST, and SYO-1 (RRID:CVCL_7146) were obtained from the Sloan Kettering Institute. The alveolar soft parts sarcoma cell line ASPS-1 (RRID:CVCL_S738) was established at the NCI and grown from internal seed stocks. The following established cell lines were purchased from the American Type Culture Collection (ATCC, Manassas, VA): G-401 (ATCC, cat. CRL-1441, RRID:CVCL_0270), SW982 (ATCC, cat. HTB-93, RRID:CVCL_1734), VA-ES-BJ (ATCC, cat. CRL-2138, RRID:CVCL_1785), NCI-H719 (ATCC, cat. CRL-5837, RRID:CVCL_1582), NCI-H196 (ATCC, cat. CRL-5823, RRID:CVCL_1509), NCI-H841 (ATCC, cat. CRL-5845, RRID:CVCL_1595), NCI-H1618 (ATCC, cat. CRL-5879, RRID:CVCL_1480), NCI-H1876 (ATCC, cat. CRL-5902, RRID:CVCL_1503), DMS 114 (ATCC, cat. CRL-2066; RRID:CVCL_1174), NCI-H211 (ATCC, cat. CRL-5824; RRID:CVCL_1529), and SW 1271 (ATCC, cat. CRL-2177, RRID:CVCL_1716). The small cell lung cancer cell line COR-L88 was purchased from Sigma-Aldrich (cat. 92031917-1VL, RRID:CVCL_1141). The non-small cell lung cancer cell lines NCI-H226 (RRID:CVCL_1544) and NCI-H322M (RRID:CVCL_1557) were established at the NCI and grown from internal seed stocks. Pooled donor human umbilical vein endothelial cells (HUVEC, Lonza, cat. CC-2519) and human mesenchymal stem cells (hMSC, Lonza, cat. PT-2501) were purchased from Lonza (Walkersville, MD).
Cell Culture. All cells were maintained in an incubator at 37 degrees C and 5% CO2 with 95% humidity. […]

[1] = curve of first compound, second compound 0.003 µM
[2] = curve of first compound, second compound 0.00949 µM
[3] = curve of first compound, second compound 0.03 µM
[4] = curve of first compound, second compound 0.0949 µM
[5] = curve of first compound, second compound 0.3 µM
[6] = second compound 0.003 µM, first compound 0.0316 µM
[7] = second compound 0.003 µM, first compound 0.1 µM
[8] = second compound 0.003 µM, first compound 0.316 µM
[9] = second compound 0.003 µM, first compound 1 µM
[10] = second compound 0.003 µM, first compound 3.16 µM
[11] = second compound 0.003 µM, first compound 10 µM
[12] = second compound 0.00949 µM, first compound 0.0316 µM
[13] = second compound 0.00949 µM, first compound 0.1 µM
[14] = second compound 0.00949 µM, first compound 0.316 µM
[15] = second compound 0.00949 µM, first compound 1 µM
[16] = second compound 0.00949 µM, first compound 3.16 µM
[17] = second compound 0.00949 µM, first compound 10 µM
[18] = second compound 0.03 µM, first compound 0.0316 µM
[19] = second compound 0.03 µM, first compound 0.1 µM
[20] = second compound 0.03 µM, first compound 0.316 µM
[21] = second compound 0.03 µM, first compound 1 µM
[22] = second compound 0.03 µM, first compound 3.16 µM
[23] = second compound 0.03 µM, first compound 10 µM
[24] = second compound 0.0949 µM, first compound 0.0316 µM
[25] = second compound 0.0949 µM, first compound 0.1 µM
[26] = second compound 0.0949 µM, first compound 0.316 µM
[27] = second compound 0.0949 µM, first compound 1 µM
[28] = second compound 0.0949 µM, first compound 3.16 µM
[29] = second compound 0.0949 µM, first compound 10 µM
[30] = second compound 0.3 µM, first compound 0.0316 µM
[31] = second compound 0.3 µM, first compound 0.1 µM
[32] = second compound 0.3 µM, first compound 0.316 µM
[33] = second compound 0.3 µM, first compound 1 µM
[34] = second compound 0.3 µM, first compound 3.16 µM
[35] = second compound 0.3 µM, first compound 10 µM

Structure (SMILES) | IC50 [1] | IC50 [2] | IC50 [3] | IC50 [4] | IC50 [5] | viability, T/C [6] | viability, T/C [7] | viability, T/C [8] | viability, T/C [9] | viability, T/C [10] | viability, T/C [11] | viability, T/C [12] | viability, T/C [13] | viability, T/C [14] | viability, T/C [15] | viability, T/C [16] | viability, T/C [17] | viability, T/C [18] | viability, T/C [19] | viability, T/C [20] | other results
[2H]c1nc(C)nc([2H])c1-c1cc(NC[C@@H](C)c2cccc3c(C(=O)NC)ccnc23)ncn1 + CC[C@@]1(O)C(=O)OCc2c1cc1n(c2=O)Cc2cc3c(CN(C)C)c(O)ccc3nc2-1 | > 10000 nM | > 10000 nM | < 31.6 nM | < 31.6 nM | < 31.6 nM | 114% | 113% | 112% | 121% | 105% | 88.5% | 93% | 96.2% | 92.4% | 79% | 68.3% | 58.9% | 35.3% | 35% | 32.8% | viability, T/C [21]: 27.7%; viability, T/C [22]: 24%; viability, T/C [23]: 18.9%; viability, T/C [24]: 17%; viability, T/C [25]: 16.7%; viability, T/C [26]: 17.1%; viability, T/C [27]: 16.9%; viability, T/C [28]: 13.7%; viability, T/C [29]: 13.7%; viability, T/C [30]: 11%; viability, T/C [31]: 11%; viability, T/C [32]: 11.4%; viability, T/C [33]: 9.27%; viability, T/C [34]: 12.8%; viability, T/C [35]: 12.3%
COc1cc(C)[nH]c(=O)c1CN1CCc2c(Cl)cc(C(OC)C3COC3)c(Cl)c2C1=O (stereo not given) + CC[C@@]1(O)C(=O)OCc2c1cc1n(c2=O)Cc2cc3c(CN(C)C)c(O)ccc3nc2-1 | > 10000 nM | 1920 nM | < 31.6 nM | < 31.6 nM | < 31.6 nM | 103% | 88.5% | 83.4% | 77% | 66% | 61.2% | 88.3% | 74.2% | 64.1% | 57.5% | 49.3% | 32.1% | 39.2% | 34% | 32.1% | viability, T/C [21]: 30.6%; viability, T/C [22]: 24.4%; viability, T/C [23]: 18.5%; viability, T/C [24]: 16.8%; viability, T/C [25]: 16.3%; viability, T/C [26]: 18.4%; viability, T/C [27]: 17.1%; viability, T/C [28]: 15.2%; viability, T/C [29]: 12%; viability, T/C [30]: 10.3%; viability, T/C [31]: 11.2%; viability, T/C [32]: 10.6%; viability, T/C [33]: 11.4%; viability, T/C [34]: 11.1%; viability, T/C [35]: 10.7%
Cn1nnc2c(C(N)=O)ncn2c1=O |  |  |  |  |  |  |  |  |  |  |  |  |  |  |  |  |  |  |  |  | viability, T/C (compound 1 µM): 101% [middle of 10 runs]; viability, T/C (compound 3.16 µM): 101% [middle of 9 runs]; viability, T/C (compound 10 µM): 106% [middle of 10 runs]; viability, T/C (compound 31.6 µM): 106% [middle of 10 runs]; IC50 (compound alone, run of 10/17/2019): > 100000 nM
